Data reported in US20240287107A1, “PRODRUGS OF DIMETHYLTRYPTAMINE AND DERIVATIVES THEREOF” (priority 2022, published 2024).

Experiment: Stability in mouse plasma
Assay type: in vitro ADME
Procedure: Chemical and plasma stability of prodrug Compound 1 was evaluated and the results enumerated in Table 7 and Table 8, respectively. PK studies of prodrug Compound 1 and metabolite (VLS-02-23-10) in mice were also conducted and both plasma exposure and brain exposure were analyzed as shown in FIGS. 1A-1C and FIGS. 2A-2B, respectively.

Structure (SMILES)	T½
C[N+](C)(CCc1c[nH]c2ccccc12)COP(=O)([O-])O [Compound 1, ((2-(1H-indol-3-yl)ethyl)dimethyl-λ^4-azaneyl)methyl hydrogen phosphate]	9.4723 h
CC(C)[N+](C)(CCOC(=O)C1c2ccccc2Oc2ccccc21)C(C)C [Propantheline]	0.5682 h
